The source of these data is patent US11739098B2 (BRISTOL-MYERS SQUIBB COMPANY, priority 2017, dated 2023).

Assay type in all cases: cell-based
One test deals with T1, human TLR7 (Homo sapiens, UniProt Q9NYK1).
T1 construct: host or cells: HEK-Blue cells (HEK293-derived reporter line)
T1 sequence (Q9NYK1 27-1049): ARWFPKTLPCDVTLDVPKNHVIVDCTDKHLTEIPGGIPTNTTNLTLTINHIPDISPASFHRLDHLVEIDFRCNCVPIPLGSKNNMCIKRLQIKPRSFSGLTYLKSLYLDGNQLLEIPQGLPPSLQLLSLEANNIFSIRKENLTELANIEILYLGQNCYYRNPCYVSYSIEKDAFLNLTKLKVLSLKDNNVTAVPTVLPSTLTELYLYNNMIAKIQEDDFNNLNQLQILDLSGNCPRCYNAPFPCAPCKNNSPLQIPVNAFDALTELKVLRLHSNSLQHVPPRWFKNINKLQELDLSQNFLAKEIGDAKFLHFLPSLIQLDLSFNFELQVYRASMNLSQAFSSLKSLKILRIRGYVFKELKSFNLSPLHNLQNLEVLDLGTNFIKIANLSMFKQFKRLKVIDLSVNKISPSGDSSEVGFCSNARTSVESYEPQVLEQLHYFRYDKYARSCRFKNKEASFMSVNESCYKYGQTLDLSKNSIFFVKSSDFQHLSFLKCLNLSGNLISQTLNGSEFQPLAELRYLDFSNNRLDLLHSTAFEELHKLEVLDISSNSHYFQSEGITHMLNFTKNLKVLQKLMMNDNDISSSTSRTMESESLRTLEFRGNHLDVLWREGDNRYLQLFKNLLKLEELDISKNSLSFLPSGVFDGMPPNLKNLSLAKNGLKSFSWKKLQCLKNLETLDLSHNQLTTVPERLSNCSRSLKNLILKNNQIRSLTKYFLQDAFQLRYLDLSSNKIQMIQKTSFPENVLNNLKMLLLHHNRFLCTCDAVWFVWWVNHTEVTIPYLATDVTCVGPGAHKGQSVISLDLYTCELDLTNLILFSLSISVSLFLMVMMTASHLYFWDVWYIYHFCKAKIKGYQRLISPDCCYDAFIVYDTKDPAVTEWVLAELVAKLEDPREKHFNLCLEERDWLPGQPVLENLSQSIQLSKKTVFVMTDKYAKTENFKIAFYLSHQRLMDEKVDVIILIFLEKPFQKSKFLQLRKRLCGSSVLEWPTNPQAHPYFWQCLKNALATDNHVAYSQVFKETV
The experiment in a line: TLR7 inhibition reporter assay (HEK-Blue cells, SEAP reporter, gardiquimod stimulation). The note with it: HEK-Blue cells overexpressing human TLR7, SEAP reporter, gardiquimod 7.5 μM. In short, it runs like this: (§1)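 HEK-Blue cells overexpressing the receptor, with NF-κB/AP-1-driven SEAP, were pre-treated 30 min at room temperature with compound (0.05 nM–50 μM), then stimulated with gardiquimod 7.5 μM (TLR7), R848 15.9 μM (TLR8) or ODN2006 5 nM (TLR9). SEAP was read after 22 h at 37 °C as percent inhibition.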
For orientation: A reporter such as luciferase makes a cellular process visible.

The target in a further test is T2, human TLR8 (Homo sapiens, UniProt Q9NR97).
T2 construct: host or cells: HEK-Blue cells (HEK293-derived reporter line)
T2 sequence (Q9NR97 27-1041): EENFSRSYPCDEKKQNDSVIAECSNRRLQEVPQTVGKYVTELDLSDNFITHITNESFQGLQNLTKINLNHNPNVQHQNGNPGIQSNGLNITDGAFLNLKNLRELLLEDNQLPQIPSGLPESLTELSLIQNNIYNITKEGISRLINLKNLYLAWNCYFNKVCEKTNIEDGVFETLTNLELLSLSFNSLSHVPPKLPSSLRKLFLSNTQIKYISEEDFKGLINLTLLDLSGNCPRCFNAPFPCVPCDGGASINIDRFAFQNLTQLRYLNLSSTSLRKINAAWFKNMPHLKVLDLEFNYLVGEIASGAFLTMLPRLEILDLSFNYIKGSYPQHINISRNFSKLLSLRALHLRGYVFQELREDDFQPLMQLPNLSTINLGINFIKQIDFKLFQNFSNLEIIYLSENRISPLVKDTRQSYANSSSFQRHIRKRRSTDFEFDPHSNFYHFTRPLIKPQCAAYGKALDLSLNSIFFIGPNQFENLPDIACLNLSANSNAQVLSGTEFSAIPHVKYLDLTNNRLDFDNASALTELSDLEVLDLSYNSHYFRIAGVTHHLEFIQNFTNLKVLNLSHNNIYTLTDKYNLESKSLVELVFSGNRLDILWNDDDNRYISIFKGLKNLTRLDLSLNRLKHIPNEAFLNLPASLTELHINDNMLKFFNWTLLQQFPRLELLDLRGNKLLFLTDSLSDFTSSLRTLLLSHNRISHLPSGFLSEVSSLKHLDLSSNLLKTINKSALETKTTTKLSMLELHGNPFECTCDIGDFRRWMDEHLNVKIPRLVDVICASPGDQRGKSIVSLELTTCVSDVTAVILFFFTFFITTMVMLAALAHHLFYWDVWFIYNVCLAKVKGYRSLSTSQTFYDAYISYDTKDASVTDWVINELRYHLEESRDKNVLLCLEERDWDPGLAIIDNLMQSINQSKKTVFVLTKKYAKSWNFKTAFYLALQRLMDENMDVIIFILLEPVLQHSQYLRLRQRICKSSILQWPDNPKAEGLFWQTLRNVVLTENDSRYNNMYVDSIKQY
As to the kind of experiment: TLR8 inhibition reporter assay (HEK-Blue cells, SEAP reporter, R848 stimulation). The note with it: HEK-Blue cells overexpressing human TLR8, SEAP reporter, R848 15.9 μM. A digest of the protocol:
as §1

The target of a further test is T3, human TLR9 (Homo sapiens, UniProt Q9NR96).
T3 construct: host or cells: HEK-Blue cells (HEK293-derived reporter line)
T3 sequence (Q9NR96 26-1032): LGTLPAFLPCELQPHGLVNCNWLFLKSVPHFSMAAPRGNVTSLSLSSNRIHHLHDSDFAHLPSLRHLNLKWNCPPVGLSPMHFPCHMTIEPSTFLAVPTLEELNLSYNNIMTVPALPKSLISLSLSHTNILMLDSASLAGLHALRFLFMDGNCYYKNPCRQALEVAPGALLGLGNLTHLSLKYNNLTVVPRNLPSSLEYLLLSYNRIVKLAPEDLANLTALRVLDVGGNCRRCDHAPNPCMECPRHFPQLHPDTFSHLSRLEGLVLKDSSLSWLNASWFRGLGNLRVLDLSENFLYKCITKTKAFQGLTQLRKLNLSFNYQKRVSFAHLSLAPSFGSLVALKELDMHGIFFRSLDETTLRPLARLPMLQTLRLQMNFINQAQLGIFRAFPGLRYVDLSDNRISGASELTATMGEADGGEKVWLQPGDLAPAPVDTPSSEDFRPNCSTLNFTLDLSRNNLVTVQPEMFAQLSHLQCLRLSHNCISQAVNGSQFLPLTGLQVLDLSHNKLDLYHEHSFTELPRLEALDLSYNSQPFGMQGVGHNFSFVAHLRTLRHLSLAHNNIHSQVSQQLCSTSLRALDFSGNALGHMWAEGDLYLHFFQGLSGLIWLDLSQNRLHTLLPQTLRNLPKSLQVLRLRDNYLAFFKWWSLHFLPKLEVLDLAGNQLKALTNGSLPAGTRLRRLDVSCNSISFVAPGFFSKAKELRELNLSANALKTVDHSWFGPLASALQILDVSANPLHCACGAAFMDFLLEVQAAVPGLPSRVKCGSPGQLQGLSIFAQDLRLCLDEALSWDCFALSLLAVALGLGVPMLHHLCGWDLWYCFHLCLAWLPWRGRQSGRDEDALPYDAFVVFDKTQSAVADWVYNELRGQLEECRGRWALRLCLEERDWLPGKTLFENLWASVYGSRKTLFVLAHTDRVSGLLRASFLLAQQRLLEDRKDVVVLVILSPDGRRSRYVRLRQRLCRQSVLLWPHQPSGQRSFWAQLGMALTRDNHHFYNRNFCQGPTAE
As to the kind of experiment: TLR9 inhibition reporter assay (HEK-Blue cells, SEAP reporter, ODN2006 stimulation). The note with it: HEK-Blue cells overexpressing human TLR9, SEAP reporter, ODN2006 5 nM. A digest of the protocol:
as §1

Broadly, the IC50 is the concentration needed to halve the response being measured. Higher therefore signals weaker potency.

A value given as a limit tells only on which side of the number the result lay.

Regarding `Cc1c(-c2[nH]c3ccc(C4CCN(C5COC5)CC4)cc3c2C(C)C)cn2nnnc2c1C` [Example 739, 6-(3-isopropyl-5-(1-(oxetan-3-yl)piperidin-4-yl)-1H-indol-2-yl)-7,8-dimethyltetrazolo[1,5-a]pyridine], the IC50 is less than 100 nM on human TLR7, less than 100 nM on human TLR8 and 1000 to 50000 nM against human TLR9.
`CC(C)c1c(-c2cn(C)c3ncccc23)[nH]c2ccc(C3CCN(CC#N)CC3)cc12` [Example 958, 2-(4-(3-isopropyl-2-(1-methyl-1H-pyrrolo[2,3-b]pyridin-3-yl)-1H-indol-5-yl)piperidin-1-yl)acetonitrile]: the IC50 at human TLR7 was less than 100 nM; on human TLR8 it was less than 100 nM; at human TLR9, 1000 to 50000 nM.
As to `Cc1nc2ccc(-c3[nH]c4ccc(C5CCNCC5)cc4c3C(C)C)cc2o1` [Example 6, 6-(3-isopropyl-5-(piperidin-4-yl)-1H-indol-2-yl)-2-methylbenzo[d]oxazole], the IC50 was less than 100 nM on human TLR7, 100 to 1000 nM on human TLR8 and 1000 to 50000 nM against human TLR9.
For `Cc1cc(-c2[nH]c3ccc(C4CCN(CC(C)(C)O)CC4)cc3c2C(C)C)cc2cccnc12` [Example 771, 1-(4-(3-isopropyl-2-(8-methylquinolin-6-yl)-1H-indol-5-yl)piperidin-1-yl)-2-methylpropan-2-ol], in that order: less than 100 nM, less than 100 nM and 1000 to 50000 nM.
For `CC(=O)N1CCN(CC(=O)N2CCC(c3ccc4[nH]c(-c5ccnc6[nH]ncc56)c(C(C)C)c4c3)CC2)CC1` [Example 574, 2-(4-acetylpiperazin-1-yl)-1-(4-(3-isopropyl-2-(1H-pyrazolo[3,4-b]pyridin-4-yl)-1H-indol-5-yl)piperidin-1-yl)ethan-1-one], in that order: less than 100 nM, less than 100 nM and greater than 50000 nM.
Turning to `CCc1c(C)c(-c2[nH]c3ccc(C4CCN(CC(C)(C)O)CC4)cc3c2C(C)C)cn2ccnc12` [Example 777, 1-(4-(2-(8-ethyl-7-methylimidazo[1,2-a]pyridin-6-yl)-3-isopropyl-1H-indol-5-yl)piperidin-1-yl)-2-methylpropan-2-ol], the IC50 is less than 100 nM at human TLR7, less than 100 nM against human TLR8 and 100 to 1000 nM on human TLR9.
Take `CNC(=O)CN1CCC(c2ccc3[nH]c(-c4cc(C)n5ccnc5c4)c(C(C)C)c3c2)CC1` [Example 355, 2-(4-(3-isopropyl-2-(5-methylimidazo[1,2-a]pyridin-7-yl)-1H-indol-5-yl)piperidin-1-yl)-N-methylacetamide]: the 50% inhibitory concentration (IC50) against human TLR7, against human TLR8 and against human TLR9 was 100 to 1000 nM each time.
`Cc1nn2ccc(-c3[nH]c4ccc(C5CCNCC5)cc4c3C(C)C)nc2c1F` [Example 150, 3-fluoro-5-(3-isopropyl-5-(piperidin-4-yl)-1H-indol-2-yl)-2-methylpyrazolo[1,5-a]pyrimidine]: the IC50 against human TLR7, at human TLR8 and at human TLR9 was 1000 to 50000 nM each time.
Regarding `CC(C)c1c(-c2cnc3ccnn3c2)[nH]c2ccc(C3CCN(C(C)C)CC3)cc12` [Example 944, 6-(3-isopropyl-5-(1-isopropylpiperidin-4-yl)-1H-indol-2-yl)pyrazolo[1,5-a]pyrimidine], the IC50 was 1000 to 50000 nM on human TLR7, greater than 3130 nM against human TLR8 and 1000 to 50000 nM at human TLR9.
For `CC(C)c1c(-c2n[nH]c3nc[nH]c(=O)c23)[nH]c2ccc(C3CCNCC3)cc12` [Example 21, 3-(3-isopropyl-5-(piperidin-4-yl)-1H-indol-2-yl)-1,5-dihydro-4H-pyrazolo[3,4-d]pyrimidin-4-one], the results for the IC50 against human TLR7, against human TLR8 and on human TLR9 were 1000 to 50000 nM, 100 to 1000 nM and 1000 to 50000 nM, respectively.
Regarding `CN(C)C(=O)CN1CCC(c2ccc3[nH]c(-c4cc(F)c5nccn5c4)c(CC(F)F)c3c2)CC1` [Example 409, 2-(4-(3-(2,2-difluoroethyl)-2-(8-fluoroimidazo[1,2-a]pyridin-6-yl)-1H-indol-5-yl)piperidin-1-yl)-N,N-dimethylacetamide], the results for the IC50 against human TLR7, against human TLR8 and on human TLR9 were less than 100 nM, 100 to 1000 nM and 1000 to 50000 nM, respectively.
In the case of `CCc1c(-c2c[nH]c3ncccc23)[nH]c2ccc(C3CCNCC3)cc12` [Example 243, 3-(3-ethyl-5-(piperidin-4-yl)-1H-indol-2-yl)-1H-pyrrolo[2,3-b]pyridine], the IC50 is less than 100 nM against human TLR7, less than 100 nM against human TLR8 and 100 to 1000 nM against human TLR9.
Take `Cc1cc2ncnn2nc1-c1[nH]c2ccc(C3CCN(C4CCOCC4)CC3)cc2c1C(C)C` [Example 687, 6-(3-isopropyl-5-(1-(tetrahydro-2H-pyran-4-yl)piperidin-4-yl)-1H-indol-2-yl)-7-methyl-[1,2,4]triazolo[1,5-b]pyridazine]: the half-maximal inhibitory concentration (IC50) was less than 100 nM on human TLR7, less than 100 nM against human TLR8 and 1000 to 50000 nM at human TLR9.
